Laboratory results published in patent US20250147039A1, “Compounds for complexation of rare earth elements and/or s-, p-, d- block metals, their coordination compounds, peptide conjugates, method of their preparation and use thereof” (USTAV ORGANICKE CHEMIE A BIOCHEMIE AV CR V.V.I., priority 2021, published 2025).

Columns and labels:
[1] = Formation of 1,5-cz-[M(Lig)] from Lig and M^III ions (metal dependent click-zip) (Charts 4, 5); assay type: physicochemical; conditions: MOPS/NaOH buffer pH 7.0; for conversion to 1,5-cz-[M(Lig)], Sc^III / conversion to 1,5-cz-[M(Lig)], Y^III: TD728, TD827 in 50% i-PrOH; for conversion to 1,5-cz-[M(Lig)], Y^III: TD714 sum of two diastereoisomers
[2] = Formation of 1,5-cz-[Ln(Lig)] from Lig and Ln^III ions (metal dependent click-zip), MOPS/NaOH buffer pH 7.0, analytical HPLC (Charts 1, 2); conditions: MOPS/NaOH buffer pH 7.0

## [N-]=[N+]=NCc1cccc(CN2CCN(CC(=O)O)CCN(Cc3cccc(C#CI)n3)CCN(CC(=O)O)CC2)n1 [TD1204]
[1]; 1 week at 80° C.
  conversion to 1,5-cz-[M(Lig)], Sc^III: 16%
  conversion to 1,5-cz-[M(Lig)], Y^III: 22%
[1]; 1 hour at 80° C.
  conversion to 1,5-cz-[M(Lig)], Sc^III: 0%
  conversion to 1,5-cz-[M(Lig)], Y^III: 3%
[2]; after 1 week at 80° C.
  conversion to 1,5-cz-[Ln(Lig)], Ce^III: 0%
  conversion to 1,5-cz-[Ln(Lig)], Dy^III: 17%
  conversion to 1,5-cz-[Ln(Lig)], Er^III: 39%
  conversion to 1,5-cz-[Ln(Lig)], Eu^III: 5%
  conversion to 1,5-cz-[Ln(Lig)], Gd^III: 5%
  conversion to 1,5-cz-[Ln(Lig)], Ho^III: 23%
  conversion to 1,5-cz-[Ln(Lig)], La^III: 0%
  conversion to 1,5-cz-[Ln(Lig)], Lu^III: 83%
  conversion to 1,5-cz-[Ln(Lig)], Nd^III: 1%
  conversion to 1,5-cz-[Ln(Lig)], Pr^III: 0%
  conversion to 1,5-cz-[Ln(Lig)], Sm^III: 4%
  conversion to 1,5-cz-[Ln(Lig)], Tb^III: 10%
  conversion to 1,5-cz-[Ln(Lig)], Tm^III: 62%
  conversion to 1,5-cz-[Ln(Lig)], Yb^III: 76%
[2]; after 1 hour at 80° C.
  conversion to 1,5-cz-[Ln(Lig)], Ce^III: 0%
  conversion to 1,5-cz-[Ln(Lig)], Dy^III: 2%
  conversion to 1,5-cz-[Ln(Lig)], Er^III: 6%
  conversion to 1,5-cz-[Ln(Lig)], Eu^III: 1%
  conversion to 1,5-cz-[Ln(Lig)], Gd^III: 1%
  conversion to 1,5-cz-[Ln(Lig)], Ho^III: 4%
  conversion to 1,5-cz-[Ln(Lig)], La^III: 0%
  conversion to 1,5-cz-[Ln(Lig)], Lu^III: 18%
  conversion to 1,5-cz-[Ln(Lig)], Nd^III: 0%
  conversion to 1,5-cz-[Ln(Lig)], Pr^III: 0%
  conversion to 1,5-cz-[Ln(Lig)], Sm^III: 1%
  conversion to 1,5-cz-[Ln(Lig)], Tb^III: 2%
  conversion to 1,5-cz-[Ln(Lig)], Tm^III: 11%
  conversion to 1,5-cz-[Ln(Lig)], Yb^III: 15%

## C#Cc1cccc(CN2CCN(CC(=O)O)CCN(Cc3cc(C(=O)OC)cc(CN=[N+]=[N-])n3)CCN(CC(=O)O)CC2)n1 [TD1092]
[1]; 1 week at 80° C.
  conversion to 1,5-cz-[Ln(Lig)] with hydrolysed group in the side chain, Sc^III: 17%
  conversion to 1,5-cz-[Ln(Lig)] with hydrolysed group in the side chain, Y^III: 95%
  conversion to 1,5-cz-[M(Lig)], Sc^III: 0%
  conversion to 1,5-cz-[M(Lig)], Y^III: 0%
[1]; 1 hour at 80° C.
  conversion to 1,5-cz-[Ln(Lig)] with hydrolysed group in the side chain, Sc^III: 0%
  conversion to 1,5-cz-[Ln(Lig)] with hydrolysed group in the side chain, Y^III: 12%
  conversion to 1,5-cz-[M(Lig)], Sc^III: 1%
  conversion to 1,5-cz-[M(Lig)], Y^III: 6%
[2]; after 1 week at 80° C.
  conversion to 1,5-cz-[Ln(Lig)] with hydrolysed group in the side chain, Ce^III: 37%
  conversion to 1,5-cz-[Ln(Lig)], Ce^III: 0%
  conversion to 1,5-cz-[Ln(Lig)] with hydrolysed group in the side chain, Dy^III: 94%
  conversion to 1,5-cz-[Ln(Lig)], Dy^III: 0%
  conversion to 1,5-cz-[Ln(Lig)] with hydrolysed group in the side chain, Er^III: 94%
  conversion to 1,5-cz-[Ln(Lig)], Er^III: 0%
  conversion to 1,5-cz-[Ln(Lig)] with hydrolysed group in the side chain, Eu^III: 91%
  conversion to 1,5-cz-[Ln(Lig)], Eu^III: 0%
  conversion to 1,5-cz-[Ln(Lig)] with hydrolysed group in the side chain, Gd^III: 92%
  conversion to 1,5-cz-[Ln(Lig)], Gd^III: 0%
  conversion to 1,5-cz-[Ln(Lig)] with hydrolysed group in the side chain, Ho^III: 94%
  conversion to 1,5-cz-[Ln(Lig)], Ho^III: 0%
  conversion to 1,5-cz-[Ln(Lig)] with hydrolysed group in the side chain, La^III: 40%
  conversion to 1,5-cz-[Ln(Lig)], La^III: 0%
  conversion to 1,5-cz-[Ln(Lig)] with hydrolysed group in the side chain, Lu^III: 97%
  conversion to 1,5-cz-[Ln(Lig)], Lu^III: 0%
  conversion to 1,5-cz-[Ln(Lig)] with hydrolysed group in the side chain, Nd^III: 73%
  conversion to 1,5-cz-[Ln(Lig)], Nd^III: 0%
  conversion to 1,5-cz-[Ln(Lig)] with hydrolysed group in the side chain, Pr^III: 62%
  conversion to 1,5-cz-[Ln(Lig)], Pr^III: 0%
  conversion to 1,5-cz-[Ln(Lig)] with hydrolysed group in the side chain, Sm^III: 88%
  conversion to 1,5-cz-[Ln(Lig)], Sm^III: 0%
  conversion to 1,5-cz-[Ln(Lig)] with hydrolysed group in the side chain, Tb^III: 93%
  conversion to 1,5-cz-[Ln(Lig)], Tb^III: 0%
  conversion to 1,5-cz-[Ln(Lig)] with hydrolysed group in the side chain, Tm^III: 95%
  conversion to 1,5-cz-[Ln(Lig)], Tm^III: 0%
  conversion to 1,5-cz-[Ln(Lig)] with hydrolysed group in the side chain, Yb^III: 96%
  conversion to 1,5-cz-[Ln(Lig)], Yb^III: 0%
[2]; after 1 hour at 80° C.
  conversion to 1,5-cz-[Ln(Lig)] with hydrolysed group in the side chain, Ce^III: 0%
  conversion to 1,5-cz-[Ln(Lig)], Ce^III: 0%
  conversion to 1,5-cz-[Ln(Lig)] with hydrolysed group in the side chain, Dy^III: 8%
  conversion to 1,5-cz-[Ln(Lig)], Dy^III: 5%
  conversion to 1,5-cz-[Ln(Lig)] with hydrolysed group in the side chain, Er^III: 19%
  conversion to 1,5-cz-[Ln(Lig)], Er^III: 12%
  conversion to 1,5-cz-[Ln(Lig)] with hydrolysed group in the side chain, Eu^III: 2%
  conversion to 1,5-cz-[Ln(Lig)], Eu^III: 2%
  conversion to 1,5-cz-[Ln(Lig)] with hydrolysed group in the side chain, Gd^III: 3%
  conversion to 1,5-cz-[Ln(Lig)], Gd^III: 2%
  conversion to 1,5-cz-[Ln(Lig)] with hydrolysed group in the side chain, Ho^III: 13%
  conversion to 1,5-cz-[Ln(Lig)], Ho^III: 7%
  conversion to 1,5-cz-[Ln(Lig)] with hydrolysed group in the side chain, La^III: 0%
  conversion to 1,5-cz-[Ln(Lig)], La^III: 0%
  conversion to 1,5-cz-[Ln(Lig)] with hydrolysed group in the side chain, Lu^III: 30%
  conversion to 1,5-cz-[Ln(Lig)], Lu^III: 26%
  conversion to 1,5-cz-[Ln(Lig)] with hydrolysed group in the side chain, Nd^III: 0%
  conversion to 1,5-cz-[Ln(Lig)], Nd^III: 1%
  conversion to 1,5-cz-[Ln(Lig)] with hydrolysed group in the side chain, Pr^III: 0%
  conversion to 1,5-cz-[Ln(Lig)], Pr^III: 0%
  conversion to 1,5-cz-[Ln(Lig)] with hydrolysed group in the side chain, Sm^III: 2%
  conversion to 1,5-cz-[Ln(Lig)], Sm^III: 1%
  conversion to 1,5-cz-[Ln(Lig)] with hydrolysed group in the side chain, Tb^III: 6%
  conversion to 1,5-cz-[Ln(Lig)], Tb^III: 3%
  conversion to 1,5-cz-[Ln(Lig)] with hydrolysed group in the side chain, Tm^III: 26%
  conversion to 1,5-cz-[Ln(Lig)], Tm^III: 19%
  conversion to 1,5-cz-[Ln(Lig)] with hydrolysed group in the side chain, Yb^III: 30%
  conversion to 1,5-cz-[Ln(Lig)], Yb^III: 24%
